Results from patent US9932340B2, “Substituted indoles” (AbbVie Inc., priority 2014, dated 2018).

Molecular target: SUV420H1 enzyme (Homo sapiens, UniProt Q4FZB7)
Test: TR-FRET SAH SUV420H1 enzyme inhibition assay
Format: biochemical
Settings: Histone Peptide H4(8-30)me1 and SAM, overnight at room temp, TR-FRET detection of SAH, read-out: TR-FRET SAH_SUV420H1 IC50
Method in brief: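 SUV420H1 (90 nM) preincubated 30 min with compound (3-fold dilutions, 50 to 0.00075 μM), then H4(8-30)me1 peptide 5 nM and SAM 4 nM added, overnight at room temp. SAH product detected by TR-FRET with Tb anti-SAH antibody and Oregon Green-SAH in RIPA buffer, 4 h; IC50 from Hill fit, asymptotes fixed 0-100%.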

Sequence of SUV420H1 enzyme (Q4FZB7 whole entry): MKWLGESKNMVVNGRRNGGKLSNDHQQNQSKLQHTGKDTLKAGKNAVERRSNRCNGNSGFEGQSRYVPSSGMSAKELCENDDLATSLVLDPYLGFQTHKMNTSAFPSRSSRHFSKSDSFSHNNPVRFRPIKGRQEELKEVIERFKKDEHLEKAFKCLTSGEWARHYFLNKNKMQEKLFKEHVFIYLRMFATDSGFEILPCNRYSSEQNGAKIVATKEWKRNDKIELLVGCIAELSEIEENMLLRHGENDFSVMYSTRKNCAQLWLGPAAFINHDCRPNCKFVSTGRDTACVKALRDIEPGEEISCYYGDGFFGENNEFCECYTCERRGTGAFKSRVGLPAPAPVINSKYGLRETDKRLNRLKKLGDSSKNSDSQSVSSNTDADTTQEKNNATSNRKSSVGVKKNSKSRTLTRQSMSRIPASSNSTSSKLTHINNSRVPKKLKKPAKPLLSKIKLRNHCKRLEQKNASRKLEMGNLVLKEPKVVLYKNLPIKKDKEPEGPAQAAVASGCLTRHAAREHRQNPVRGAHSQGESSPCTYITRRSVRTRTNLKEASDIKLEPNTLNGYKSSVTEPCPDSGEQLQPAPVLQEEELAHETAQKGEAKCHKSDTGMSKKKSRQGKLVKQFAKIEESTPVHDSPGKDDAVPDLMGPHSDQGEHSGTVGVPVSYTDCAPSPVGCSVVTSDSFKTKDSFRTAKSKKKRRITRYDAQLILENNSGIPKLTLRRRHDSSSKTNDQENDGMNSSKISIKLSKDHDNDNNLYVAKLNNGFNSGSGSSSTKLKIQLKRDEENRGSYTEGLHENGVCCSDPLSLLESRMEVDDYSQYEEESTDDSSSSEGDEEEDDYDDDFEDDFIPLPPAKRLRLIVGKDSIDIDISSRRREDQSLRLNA

Row | Structure (SMILES) | IC50
1 | Nc1ncnc2c1ncn2Cc1cc(Cl)cc2cc(CNC(=O)c3ccc4ncoc4c3)[nH]c12 [Example 338, N-({7-[(6-amino-9H-purin-9-yl)methyl]-5-chloro-1H-indol-2-yl}methyl)-1,3-benzoxazole-6-carboxamide] | 2.85 µM
2 | Nc1ncnc2c1ncn2Cc1cc(Cl)cc2cc(CNC(=O)c3ccc4ocnc4c3)[nH]c12 [Example 339, N-({7-[(6-amino-9H-purin-9-yl)methyl]-5-chloro-1H-indol-2-yl}methyl)-1,3-benzoxazole-5-carboxamide] | 6.87 µM
3 | Nc1ncnc2c1ncn2Cc1cc(Cl)cc2cc(CNC(=O)c3ccc4nc(O)sc4c3)[nH]c12 [Example 341] | 3.03 µM
4 | Nc1ncnc2c1ncn2Cc1cc(Cl)cc2cc(CNC(=O)c3ccc4[nH]ccc4n3)[nH]c12 [Example 343, N-({7-[(6-amino-9H-purin-9-yl)methyl]-5-chloro-1H-indol-2-yl}methyl)-1H-pyrrolo[3,2-b]pyridine-5-carboxamide] | 4.82 µM
5 | Nc1ncnc2c1ncn2Cc1cc(Cl)cc2cc(CNC(=O)c3ccc4[nH]ncc4c3)[nH]c12 [Example 346, N-({7-[(6-amino-9H-purin-9-yl)methyl]-5-chloro-1H-indol-2-yl}methyl)-1H-indazole-5-carboxamide] | 4.66 µM
6 | Nc1ncnc2c1ncn2Cc1cc(Cl)cc2cc(CNC(=O)c3cnc4[nH]ccc4c3)[nH]c12 [Example 347, N-({7-[(6-amino-9H-purin-9-yl)methyl]-5-chloro-1H-indol-2-yl}methyl)-1H-pyrrolo[2,3-b]pyridine-5-carboxamide] | 29.1 µM
7 | Nc1ncnc2c1ncn2Cc1cc(Cl)cc2cc(CNC(=O)c3cnc4[nH]ccc4c3Cl)[nH]c12 [Example 348, N-({7-[(6-amino-9H-purin-9-yl)methyl]-5-chloro-1H-indol-2-yl}methyl)-4-chloro-1H-pyrrolo[2,3-b]pyridine-5-carboxamide] | 7.27 µM
8 | Nc1ncnc2c1ncn2Cc1cc(Cl)cc2cc(CNC(=O)c3nc4[nH]ccc4cc3Cl)[nH]c12 [Example 349, N-({7-[(6-amino-9H-purin-9-yl)methyl]-5-chloro-1H-indol-2-yl}methyl)-5-chloro-1H-pyrrolo[2,3-b]pyridine-6-carboxamide] | 8.78 µM
9 | Nc1ncnc2c1ncn2Cc1cc(Cl)cc2cc(CNC(=O)c3ccc4[nH]ncc4c3F)[nH]c12 [Example 350, N-({7-[(6-amino-9H-purin-9-yl)methyl]-5-chloro-1H-indol-2-yl}methyl)-4-fluoro-1H-indazole-5-carboxamide] | 2.74 µM
10 | Cc1n[nH]c2ncc(C(=O)NCc3cc4cc(Cl)cc(Cn5cnc6c(N)ncnc65)c4[nH]3)cc12 [Example 353, N-({7-[(6-amino-9H-purin-9-yl)methyl]-5-chloro-1H-indol-2-yl}methyl)-3-methyl-1H-pyrazolo[3,4-b]pyridine-5-carboxamide] | > 50 µM
11 | Nc1ncnc2c1ncn2Cc1cc(Cl)cc2cc(CNC(=O)c3ccc4sccc4c3)[nH]c12 [Example 354, N-({7-[(6-amino-9H-purin-9-yl)methyl]-5-chloro-1H-indol-2-yl}methyl)-1-benzothiophene-5-carboxamide] | 5.96 µM
12 | Nc1ncnc2c1ncn2Cc1cc(Cl)cc2cc(CNC(=O)c3ccc4occc4c3)[nH]c12 [Example 355, N-({7-[(6-amino-9H-purin-9-yl)methyl]-5-chloro-1H-indol-2-yl}methyl)-1-benzofuran-5-carboxamide] | 4.87 µM
13 | Nc1ncnc2c1ncn2Cc1cc(Cl)cc2cc(CNC(=O)c3ccc4cc[nH]c4c3)[nH]c12 [Example 356, N-({7-[(6-amino-9H-purin-9-yl)methyl]-5-chloro-1H-indol-2-yl}methyl)-1H-indole-6-carboxamide] | 2.65 µM
14 | Nc1ncnc2c1ncn2Cc1cc(Cl)cc2cc(CNC(=O)c3ccc4[nH]ccc4c3)[nH]c12 [Example 357, N-({7-[(6-amino-9H-purin-9-yl)methyl]-5-chloro-1H-indol-2-yl}methyl)-1H-indole-5-carboxamide] | 12 µM
15 | Cc1nc2ccc(C(=O)NCc3cc4cc(Cl)cc(Cn5cnc6c(N)ncnc65)c4[nH]3)cc2o1 [Example 359, N-({7-[(6-amino-9H-purin-9-yl)methyl]-5-chloro-1H-indol-2-yl}methyl)-2-methyl-1,3-benzoxazole-6-carboxamide] | 4.28 µM
16 | Cc1nc2cc(C(=O)NCc3cc4cc(Cl)cc(Cn5cnc6c(N)ncnc65)c4[nH]3)ccc2[nH]1 [Example 363, N-({7-[(6-amino-9H-purin-9-yl)methyl]-5-chloro-1H-indol-2-yl}methyl)-2-methyl-1H-benzimidazole-5-carboxamide] | 4.3 µM

These reach a lower IC50. Values come first.

Row | IC50 | Structure (SMILES)
17 | 0.0985 µM | Nc1ncnc2c1ncn2Cc1cc(Cl)cc2cc(CNC(=O)c3cnc4ccsc4c3)[nH]c12 [Example 337, N-({7-[(6-amino-9H-purin-9-yl)methyl]-5-chloro-1H-indol-2-yl}methyl)thieno[3,2-b]pyridine-6-carboxamide]
18 | 0.807 µM | Nc1ncnc2c1ncn2Cc1cc(Cl)cc2cc(CNC(=O)c3cnc4ccoc4c3)[nH]c12 [Example 340, N-({7-[(6-amino-9H-purin-9-yl)methyl]-5-chloro-1H-indol-2-yl}methyl)furo[3,2-b]pyridine-6-carboxamide]
19 | 0.947 µM | Nc1ncnc2c1ncn2Cc1cc(Cl)cc2cc(CNC(=O)c3ccc4cn[nH]c4c3)[nH]c12 [Example 342, N-({7-[(6-amino-9H-purin-9-yl)methyl]-5-chloro-1H-indol-2-yl}methyl)-1H-indazole-6-carboxamide]
20 | 0.393 µM | Cc1noc2ncc(C(=O)NCc3cc4cc(Cl)cc(Cn5cnc6c(N)ncnc65)c4[nH]3)cc12 [Example 351, N-({7-[(6-amino-9H-purin-9-yl)methyl]-5-chloro-1H-indol-2-yl}methyl)-3-methyl[1,2]oxazolo[5,4-b]pyridine-5-carboxamide]
21 | 1.28 µM | Cn1nnc2cc(C(=O)NCc3cc4cc(Cl)cc(Cn5cnc6c(N)ncnc65)c4[nH]3)ccc21 [Example 352, N-({7-[(6-amino-9H-purin-9-yl)methyl]-5-chloro-1H-indol-2-yl}methyl)-1-methyl-1H-benzotriazole-5-carboxamide]
22 | 0.889 µM | Cc1nc2ccc(C(=O)NCc3cc4cc(Cl)cc(Cn5cnc6c(N)ncnc65)c4[nH]3)cc2s1 [Example 358, N-({7-[(6-amino-9H-purin-9-yl)methyl]-5-chloro-1H-indol-2-yl}methyl)-2-methyl-1,3-benzothiazole-6-carboxamide]
23 | 0.747 µM | Cn1ncc2ccc(C(=O)NCc3cc4cc(Cl)cc(Cn5cnc6c(N)ncnc65)c4[nH]3)cc21 [Example 360, N-({7-[(6-amino-9H-purin-9-yl)methyl]-5-chloro-1H-indol-2-yl}methyl)-1-methyl-1H-indazole-6-carboxamide]
24 | 2.15 µM | Cn1cnc2cc(C(=O)NCc3cc4cc(Cl)cc(Cn5cnc6c(N)ncnc65)c4[nH]3)ccc21 [Example 361, N-({7-[(6-amino-9H-purin-9-yl)methyl]-5-chloro-1H-indol-2-yl}methyl)-1-methyl-1H-benzimidazole-5-carboxamide]
25 | 0.636 µM | Cn1ncc2cc(C(=O)NCc3cc4cc(Cl)cc(Cn5cnc6c(N)ncnc65)c4[nH]3)ccc21 [Example 362, N-({7-[(6-amino-9H-purin-9-yl)methyl]-5-chloro-1H-indol-2-yl}methyl)-1-methyl-1H-indazole-5-carboxamide]
